Values after ≈ are worked out from the molar mass of the structure shown.
Assays:
[1] = target: quisqualate type receptors (3H-AMPA, rat cerebral cortical membrane homogenate); assay: 3H-AMPA binding (displacement from quisqualate type receptors); details: 5 nM 3H-AMPA, 0° C., 30 min, pH 7.1
Protocol: (§1) The pharmacological properties of the compounds of the present invention can be illustrated by determining their capability for displacing radioactively labelled 2-amino-3-hydroxy-5-methyl-4-isoxazolepropionic acid (AMPA) from the quisqualate type receptors.
The displacement activity of the compounds may be shown by determining the IC50 value which represents the concentration (μg/ml) which causes a displacement of 50% of the specific binding of ^3 H-AMPA.
500 μl of thawed rat cerebral cortical membrane homogenate in Tris-HCl (30 mM), CaCl2 (2.5 mM) and KSCN (100 mM) pH 7.1 were incubated at 0° C. for 30 min. with 25 μl ^3 H-AMPA (5 nM final concentration) and the test compound and buffer. Nonspecific binding was determined by incubation with L-glutamic acid (600 μM final concentration). The binding reaction was terminated by adding 5 ml of ice-cold buffer followed by filtration through Whatman GF/C glass fibre filters and 2×5 ml wash with ice-cold buffer. Bound radioactivity was measured by scintillation counting. IC50 was determined by Hill analysis of at least four concentrations of test compound.

[2] = target: quisqualate receptors (quisqualic acid stimulated 3H-GABA efflux, cultured cortical neurones); assay: Antagonism of quisqualic acid stimulated 3H-GABA efflux from cultured cortical neurones; assay type: cell-based, mouse; details: Table 1; test not stated
Protocol: as §1
The antagonism is measured by determining the EC50 value which represents the concentration which reduces the rate of quisqualic acid stimulated ^3 H-GABA efflux by 50%.
Cerebral cortices of 16 day old mouse embryos are chopped in 0.4×0.4 mm cubes. The tissue is dissociated by mild trypsinization (0.1% (wt/vol) trypsin, 37° C., 15 min) and subsequently inoculated into poly-L-lysine-coated 3 cm Petri dishes containing a slightly modified DMEM (24.5 mM KCl, 30 mM glucose) supplemented with p-aminobenzoate (7μM), insulin (100 mU/1) and 10% (vol/vol) horse serum. Cells are maintained in culture for 5-7 days with the addition of the antimitotic agent cytosine arbinoside (40 μM) from day 2 in vitro to prevent glial proliferation. For further details and references see Drejer et al. Exp. Brain Res. 47, 259 (1982)).
Release experiments are performed using the model described by Drejer et al. (Life Sci. 38, 2077 (1986)). Cerebral cortex interneurons cultured in Petri dishes (30 mm) are added 100 μM gamma-vinyl-GABA one hour before the experiment in order to inhibit degradation of GABA in the neurons. 30 min. before the experiment 5 μCi ^3 H-GABA is added to each culture and after this preloading period the cell monolayer at the bottom of the dish is covered with a piece of nylon mesh to protect the cells against mechanical damage and to facilitate dispersion of medium over the cell layer. The preloading medium is removed and the Petri dishes are placed in a superfusion system. This system consists of a peristaltic pump continuously delivering thermostated 37° C. superfusion medium (HEPES buffered saline (HBS): 10 mM HEPES, 135 mM NaCl, 5 mM KCl, […] 1.0 mM CaCl2 and 6 mM D-glucose; pH 7.4) from a reservoir to the top of the slightly tilted Petri dish. The medium is continuously collected from the lower part of the dish and delivered to a fraction collector. Initially, the cells are superfused with HBS for 15 min. (flow rate 2 ml/min.). The cells are stimulated for 30 sec. every 4 min. by changing the superfusion medium from HBS to a corresponding medium containing quisqualate and test compound. The release of ^3 H-GABA in the presence of quisqualate (stimulated release in cpm) are corrected for the mean basal release (Cpm) before and after the stimulation.

| IC50 (concentration which causes a displacement of 50% of the specific binding of 3H-AMPA) [1] [µg/mL] | EC50 [2] [µg/mL] | Compound |
| --- | --- | --- |
| 0.61 | 0.12 (≈ 0.526 µM) | O=c1[nH]c2c3ccccc3ccc2n(O)c1=O [Example 1b, 4-Hydroxy-benzo[f]quinoxaline-2,3(1H,4H)-dione] |
| 0.39 | 0.1 (≈ 0.395 µM) | N#Cc1cc2c([nH]c(=O)c(=O)n2O)c2ccccc12 [Example 2c, 6-Cyano-4-hydroxy-benzo[f]quinoxaline-2,3(1H,4H)-dione] |
| 0.23 | 0.16 (≈ 0.698 µM) | O=c1[nH]c2c3cccnc3ccc2n(O)c1=O [Example 4b, 4-Hydroxypyrido[3,2-f]quinoxaline-2,3(1H,4H)-dione] |
| 0.49 | 0.14 (≈ 0.603 µM) | O=c1[nH]c2c3c(ccc2n(O)c1=O)CCCC3 [Example 5b, 7,8,9,10-Tetrahydro-4-hydroxybenzo[f]quinoxaline-2,3(1H,4H)-dione] |

Source: patent US5081123A, “Quinoxaline compound and their preparation and use” (Novo Nordisk A/S, priority 1988, dated 1992)
